# Results reported in patent US7754654B2, “Substituted spirocyclic ketoenols” (Bayer CropScience AG, priority 2002, dated 2010).
# Key:
# Format in all cases: in vivo
# [1] = test system: Sinapis; assay: Pre-emergence test; settings: 250 g of ai/ha, after three weeks
# Experimental: (§1) To produce a suitable preparation of active compound, 1 part by weight of active compound is mixed with the stated amount of solvent, the stated amount of emulsifier is added and the concentrate is diluted with water to the desired concentration. Seeds of the test plants are sown in normal soil. After about 24 hours, the soil is sprayed with the preparation of active compound such that the particular amounts of active compound desired are applied per unit area. The concentration of the spray liquor is chosen such that the particular amounts of active compound desired are applied in 1000 l of water/ha. After three weeks, the degree of damage to the plants is rated in % damage in comparison to the development of the untreated control. The figures denote: • 0%=no effect (like untreated control) • 100%=total destruction
# [2] = test system: Amaranthus; assay: Pre-emergence test; settings: 250 g of ai/ha, after three weeks
# Experimental: as §1
# [3] = test system: Sugar beet; assay: Pre-emergence test; settings: 250 g of ai/ha, after three weeks
# Experimental: as §1
# [4] = test system: Alopecurus; assay: Pre-emergence test; settings: 250 g of ai/ha, after three weeks
# Experimental: as §1
# [5] = test system: Setaria; assay: Pre-emergence test; settings: after three weeks
# Experimental: as §1
# [6] = test system: Avena fatua; assay: Pre-emergence test; settings: 250 g of ai/ha, after three weeks
# Experimental: as §1
# [7] = test system: Echinochloa; assay: Pre-emergence test; settings: 250 g of ai/ha, after three weeks
# Experimental: as §1
# [8] = test system: larvae of the mustard beetle (Phaedon cochleariae); assay: Phaedon larvae test (cabbage leaf dip); settings: 1000 ppm
# Experimental: To produce a suitable preparation of active compound, 1 part by weight of active compound is mixed with the stated amounts of solvent and emulsifier, and the concentrate is diluted with emulsifier-containing water to the desired concentration. Cabbage leaves (Brassica oleracea) are treated by being dipped into the preparation of active compound of the desired concentration and are populated with larvae of the mustard beetle (Phaedon cochleariae) while the leaves are still moist. After the desired period of time, the kill in % is determined. 100% means that all beetle larvae have been killed; 0% means that none of the beetle larvae have been killed.
# [9] = test system: Sinapis; assay: Post-emergence test; settings: 250 g of ai/ha, after three weeks
# Experimental: as §1, with “Test plants” for “Seeds”, “a height of 5-15 cm” for “the test plants”, “are” for “are sown in normal soil. After about 24 hours, the soil is”
# [10] = test system: Amaranthus; assay: Post-emergence test; settings: 250 g of ai/ha, after three weeks
# Experimental: as §1, with “Test plants” for “Seeds”, “a height of 5-15 cm” for “the test plants”, “are” for “are sown in normal soil. After about 24 hours, the soil is”
# [11] = test system: Sugar beet; assay: Post-emergence test; settings: 250 g of ai/ha, after three weeks
# Experimental: as §1, with “Test plants” for “Seeds”, “a height of 5-15 cm” for “the test plants”, “are” for “are sown in normal soil. After about 24 hours, the soil is”
# [12] = test system: Abutilon; assay: Post-emergence test; settings: 250 g of ai/ha, after three weeks
# Experimental: as §1, with “Test plants” for “Seeds”, “a height of 5-15 cm” for “the test plants”, “are” for “are sown in normal soil. After about 24 hours, the soil is”
# [13] = test system: Setaria; assay: Post-emergence test; settings: 250 g of ai/ha, after three weeks
# Experimental: as §1, with “Test plants” for “Seeds”, “a height of 5-15 cm” for “the test plants”, “are” for “are sown in normal soil. After about 24 hours, the soil is”
# [14] = test system: Avena fatua; assay: Post-emergence test; settings: 250 g of ai/ha, after three weeks
# Experimental: as §1, with “Test plants” for “Seeds”, “a height of 5-15 cm” for “the test plants”, “are” for “are sown in normal soil. After about 24 hours, the soil is”
# [15] = test system: Ipomoea; assay: Pre-emergence test; settings: 125 g of ai/ha, after three weeks
# Experimental: as §1
# [16] = test system: Digitaria; assay: Pre-emergence test; settings: 125 g of ai/ha, after three weeks
# Experimental: as §1
# [17] = test system: Eriochloa; assay: Pre-emergence test; settings: 125 g of ai/ha, after three weeks
# Experimental: as §1
# [18] = test system: Maize; assay: Pre-emergence test; settings: 125 g of ai/ha, after three weeks
# Experimental: as §1
# [19] = test system: Lolium; assay: Pre-emergence test; settings: 125 g of ai/ha, after three weeks
# Experimental: as §1
# [20] = test system: Galium; assay: Post-emergence test; settings: 250 g of ai/ha, after three weeks
# Experimental: as §1, with “Test plants” for “Seeds”, “a height of 5-15 cm” for “the test plants”, “are” for “are sown in normal soil. After about 24 hours, the soil is”
# [21] = test system: Alopecurus; assay: Post-emergence test; settings: 250 g of ai/ha, after three weeks
# Experimental: as §1, with “Test plants” for “Seeds”, “a height of 5-15 cm” for “the test plants”, “are” for “are sown in normal soil. After about 24 hours, the soil is”
# [22] = test system: Cyperus; assay: Post-emergence test; settings: 250 g of ai/ha, after three weeks
# Experimental: as §1, with “Test plants” for “Seeds”, “a height of 5-15 cm” for “the test plants”, “are” for “are sown in normal soil. After about 24 hours, the soil is”
compound,measurement,setting,value
"Cc1cc(C)c(C2=C(O)C3(CCC(OCC4CCCO4)CC3)NC2=O)c(C)c1 (single isomer, unassigned) [Ex. I-1-a-7]",% damage,[1],90%
same,% damage,[2],95%
same,% damage,[3],0%
same,% damage,[4],80%
same,% damage,[5]; 250 g of ai/ha,100%
same,% damage,[6],95%
same,% damage,[7],99%
same,Kill rate in % after 7d,[8],100%
"Cc1cc(C)c(C2=C(O)C3(CCC(OCc4cccc(Cl)c4)CC3)NC2=O)c(C)c1 (single isomer, unassigned) [Ex. I-1-a-23]",% damage,[9],90%
same,% damage,[10],90%
same,% damage,[11],0%
same,% damage,[12],80%
same,% damage,[13],95%
same,% damage,[14],80%
same,% damage,[15],80%
same,% damage,[16],100%
same,% damage,[17],99%
same,% damage,[18],0%
same,% damage,[19],80%
same,% damage,[5]; 125 g of ai/ha,95%
"Cc1cc(C)c(C2=C(O)C3(CCC(OCc4ccc(Cl)cc4)CC3)NC2=O)c(C)c1 (single isomer, unassigned) [Ex. I-1-a-27]",% damage,[9],80%
same,% damage,[20],70%
same,% damage,[10],90%
same,% damage,[21],90%
same,% damage,[12],80%
"Cc1cc(C)c(C2=C(OC(=O)C(C)C)C3(CCC(OCc4ccccc4)CC3)NC2=O)c(C)c1 (single isomer, unassigned) [Ex. I-1-b-2]",% damage,[9],70%
same,% damage,[11],0%
same,% damage,[21],80%
same,% damage,[22],80%
same,% damage,[13],95%
